Our source for the IC50 values is ChEMBL document CHEMBL1151899, “Oleanane-type isomeric triterpenoids from Barringtonia racemosa” (J Nat Prod, 2009).

The test system of one assay is HeLa. The assay is described as follows: Cytotoxicity against human HeLa cells by MTT assay. The assay is classed as functional, cell-based.
The nature of assay [1]: Cytotoxicity against mouse P388D1 cells by MTT assay. Type of assay: functional, cell-based.

Structures are written as SMILES. Some results are limits rather than exact numbers.

Consider `CCC(C)C(=O)O[C@H]1[C@H](OC(C)=O)C(C)(C)C[C@H]2C3=CC[C@@H]4[C@@]5(C)CC[C@H](O)C(C)(C)[C@@H]5CC[C@@]4(C)[C@]3(C)[C@@H](O)[C@@H](O)[C@]21CO` (stereo partly drawn) [ISORACEMOSOL A], for which the IC50 (in the assay on HeLa; in assay [1]) was above 50 µM throughout.
Regarding `CC[C@H](/C=C/[C@@H](C)[C@H]1CC[C@H]2[C@@H]3CC=C4C[C@@H](O)CC[C@]4(C)[C@H]3CC[C@]12C)C(C)C` [STIGMASTEROL], the IC50 (in the assay on HeLa; in assay [1]) was above 50 µM in each case.
`CCC(C)C(=O)OC[C@@]12[C@H](O)[C@H](O)[C@]3(C)C(=CC[C@@H]4[C@@]5(C)CC[C@H](O)C(C)(C)[C@@H]5CC[C@]43C)[C@@H]1CC(C)(C)[C@@H](O)[C@@H]2OC(C)=O` (stereo partly drawn) [RACEMOSOL A]: the half-inhibitory concentration (IC50) (in the assay on HeLa; in assay [1]) was above 50 µM each time.
With `CC1(C)CC[C@]2(C(=O)O)CC[C@]3(C)C(=CC[C@@H]4[C@@]5(C)C[C@@H](O)[C@H](O)[C@@](C)(C(=O)O)[C@@H]5CC[C@]43C)[C@@H]2[C@@H]1O` [BARTOGENIC ACID], the IC50 (with HeLa; in assay [1]) was above 50 µM in each case.
On to `CC1(C)C[C@H]2C3=CC[C@@H]4[C@@]5(C)CC[C@H](O)C(C)(C)[C@@H]5CC[C@@]4(C)[C@]3(C)C[C@@H](O)[C@@]2(CO)[C@@H](O)[C@@H]1O` [BARRINGTOGENOL C], for which the IC50 (in the assay with HeLa; in assay [1]) was above 50 µM each time.
